In publication PMC4724696 (Acta Pharmaceutica Sinica. B, 2016):

Tests used:
Assay type in all cases: cell-based
BxPC3 = assay: Cell proliferation assay; conditions: Homo sapiens, BXPC-3, 72 h, read-out: IC50 in cancer cell lines
SK-OV-3 = assay: Cell proliferation assay; conditions: Homo sapiens, SK-OV-3, 72 h, read-out: IC50 in cancer cell lines
A375 = assay: Cell proliferation assay; conditions: Homo sapiens, A-375, 72 h, read-out: IC50 in cancer cell lines
[1] = system: acetylation of histones H3, H4 and tubulin in HCT-116 colorectal cancer cells; assay: Western Blot analysis of Ac-H3, Ac-H4 and Ac-tubulin; conditions: HCT-116 cells, various concentrations, 24 h

IC50 (BxPC3): 2240 ± 610 nM | IC50 (SK-OV-3): 3570 ± 740 nM | IC50 (A375): 1860 ± 420 nM
SMILES: O=C(CCCCCCC(=O)Nc1ccccc1)NO [SAHA, Vorinostat]
acetylation of histones H3, H4 and tubulin [1]: Increased acetylated histones and tubulin levels
